Laboratory results as given in US12285407B2, “Bis-indolylmethane derivatives and uses thereof” (The University of The West Indies, priority 2018, dated 2025).

Legend:
Streptococcus pneumoniae [1] = assay: Adjuvant broth microdilution (antibiotic MIC with SP-BIM at 50 μg/mL); type: cell-based; conditions: Streptococcus pneumoniae, read-out: MIC of antibiotic, No compound
Escherichia coli [2] = assay: microbe, parasite or virus in culture; type: cell-based; conditions: read-out: MIC of antibiotic, No compound
Staphylococcus aureus = assay: Checkerboard synergy (FICI) of antibiotics with SP-BIM; type: cell-based; conditions: Staphylococcus aureus
Streptococcus pneumoniae [3] = assay: as above; type: cell-based
Bacillus cereus = assay: as above; type: cell-based
Klebsiella pneumoniae = assay: as above; type: cell-based
[4] = system: clinical strains of Enterococcus faecium; assay: Kirby Bauer disc diffusion susceptibility profile; type: cell-based; conditions: for Zone of clearance: 35° C., 24 hours, average n=3; for Interpretive standard (resistant/susceptible): zones vs EUCAST breakpoints (Table 31)
[5] = system: clinical antibiotic resistant isolates of Enterococcus faecium; assay: Checkerboard resistance breaking by SP-BIM 13; type: cell-based; conditions: for FIC compound / Rescue concentration of SP-BIM 13: SP-BIM 13 with the labelled antibiotic; for Interpretation / Σ FIC: antibiotic + SP-BIM 13; for MIC of antibiotic only: antibiotic alone; for FIC antibiotic: combination with SP-BIM 13; for MIC of antibiotic in combination: with SP-BIM 13 at rescue concentration
Escherichia coli [6] = assay: Checkerboard synergy (FICI) of antibiotics with SP-BIM; parameters: MIC SP-BIM 13 only / MIC in combination: Antibiotic: unit not given beside the values
Candida albicans = assay: as above; parameters: MIC SP-BIM 13 only / MIC in combination: Antibiotic / MIC antibiotic only: unit not given beside the values
[7] = 24 h, read-out: MIC antibiotic only
[8] = SP-BIM 9 in combination with the labelled antibiotic
[9] = SP-BIM 13 in combination with the labelled antibiotic
[10] = antibiotic alone, SP-BIM 13 checkerboard
[11] = antibiotic in combination with SP-BIM 9
[12] = antibiotic in combination with SP-BIM 13
[13] = Streptococcus pneumonia (title: Streptococcus pyogenes), antibiotic + SP-BIM 9
[14] = Streptococcus pneumoniae, antibiotic + SP-BIM 13
[15] = MIC of the antibiotic in combination with SP-BIM 13

CN[C@H](CC(C)C)C(=O)N[C@H]1C(=O)N[C@@H](CC(N)=O)C(=O)N[C@H]2C(=O)N[C@H]3C(=O)N[C@H](C(=O)N[C@H](C(=O)O)c4cc(O)cc(O)c4-c4cc3ccc4O)[C@H](O)c3ccc(c(Cl)c3)Oc3cc2cc(c3O[C@@H]2O[C@H](CO)[C@@H](O)[C@H](O)[C@H]2O[C@H]2C[C@](C)(N)[C@H](O)[C@H](C)O2)Oc2ccc(cc2Cl)[C@H]1O [Vancomycin, vancomycin]
MIC (Streptococcus pneumoniae [1]): 1 µg/mL | MIC (Escherichia coli [2]): 125 µg/mL | MIC (Staphylococcus aureus; [7]): 2 µg/mL | FIC of SP-BIM 9 (Staphylococcus aureus; [8]): 0.02 | FIC of SP-BIM 13 (Staphylococcus aureus; [9]): 0.3 | Interpretation (Staphylococcus aureus; antibiotic + SP-BIM 9): Synergy (Synergy: FICI≤0.5) | Σ FIC (Staphylococcus aureus; antibiotic + SP-BIM 9): <0.27 | Interpretation (Staphylococcus aureus; antibiotic + SP-BIM 13): Synergy (Synergy: FICI≤0.5) | Σ FIC (Staphylococcus aureus; antibiotic + SP-BIM 13): 0.4 | MIC antibiotic only (Staphylococcus aureus; [10]): 2 µg/mL | MIC in combination, Antibiotic (Staphylococcus aureus; [11]): 0.5 µg/mL | MIC in combination, Antibiotic (Staphylococcus aureus; [12]): 0.25 µg/mL | FIC of antibiotic (Staphylococcus aureus; in combination with SP-BIM 9): 0.25 | FIC of antibiotic (Staphylococcus aureus; in combination with SP-BIM 13): 0.1 | FIC of SP-BIM 9 (Streptococcus pneumoniae [3]; Streptococcus pneumonia (title: Streptococcus pyogenes), SP-BIM 9 in combination with the labelled antibiotic): 0.26 | Interpretation (Streptococcus pneumoniae [3]; [13]): Synergy (Synergy: FICI≤0.5) | Σ FIC (Streptococcus pneumoniae [3]; [13]): <0.36 | MIC in combination, Antibiotic (Streptococcus pneumoniae [3]; Streptococcus pneumonia (title: Streptococcus pyogenes), antibiotic in combination with SP-BIM 9): 0.2 µg/mL | FIC of antibiotic (Streptococcus pneumoniae [3]; Streptococcus pneumonia (title: Streptococcus pyogenes), in combination with SP-BIM 9): 0.10 | MIC (Streptococcus pneumoniae [3]; Streptococcus pneumoniae, 24 h, read-out: MIC antibiotic only): 2 µg/mL | FIC of SP-BIM 13 (Streptococcus pneumoniae [3]; Streptococcus pneumoniae, SP-BIM 13 in combination with the labelled antibiotic): 0.1 | Interpretation (Streptococcus pneumoniae [3]; [14]): Synergy (Synergy: FICI≤0.5) | Σ FIC (Streptococcus pneumoniae [3]; [14]): 0.3 | MIC antibiotic only (Streptococcus pneumoniae [3]; Streptococcus pneumoniae, antibiotic alone, SP-BIM 13 checkerboard): 2 µg/mL | MIC in combination, Antibiotic (Streptococcus pneumoniae [3]; Streptococcus pneumoniae, antibiotic in combination with SP-BIM 13): 0.5 µg/mL | FIC of antibiotic (Streptococcus pneumoniae [3]; Streptococcus pneumoniae, in combination with SP-BIM 13): 0.3 | MIC (Bacillus cereus; [7]): 2 µg/mL | FIC of SP-BIM 13 (Bacillus cereus; [9]): 0.0 | Interpretation (Bacillus cereus; antibiotic + SP-BIM 13): Synergy (Synergy: FICI≤0.5) | Σ FIC (Bacillus cereus; antibiotic + SP-BIM 13): 0.1 | MIC antibiotic only (Bacillus cereus; [10]): 2 µg/mL | MIC in combination, Antibiotic (Bacillus cereus; [12]): 0.25 µg/mL | FIC of antibiotic (Bacillus cereus; in combination with SP-BIM 13): 0.13 | MIC (Klebsiella pneumoniae; [7]): 125 µg/mL | FIC of SP-BIM 9 (Klebsiella pneumoniae; [8]): 1 | FIC of SP-BIM 13 (Klebsiella pneumoniae; [9]): 1.0 | Interpretation (Klebsiella pneumoniae; antibiotic + SP-BIM 9): Indifferent (Indifferent: FICI>1.0-4.0) | Σ FIC (Klebsiella pneumoniae; antibiotic + SP-BIM 9): <2.0 | Interpretation (Klebsiella pneumoniae; antibiotic + SP-BIM 13): Indifferent (Indifferent: FICI>1.0-4.0) | Σ FIC (Klebsiella pneumoniae; antibiotic + SP-BIM 13): <2.0 | MIC antibiotic only (Klebsiella pneumoniae; [10]): 125 µg/mL | MIC in combination, Antibiotic (Klebsiella pneumoniae; [11]): 125 µg/mL | MIC in combination, Antibiotic (Klebsiella pneumoniae; [12]): 125 µg/mL | FIC of antibiotic (Klebsiella pneumoniae; in combination with SP-BIM 9): 1 | FIC of antibiotic (Klebsiella pneumoniae; in combination with SP-BIM 13): 1.0 | Zone of clearance ([4]; E. faecium strain 15134): 12 mm | Interpretive standard (resistant/susceptible) ([4]; E. faecium strain 15134): S | Zone of clearance ([4]; E. faecium strain 21024): 9 mm | Interpretive standard (resistant/susceptible) ([4]; E. faecium strain 21024): R | Zone of clearance ([4]; E. faecium strain 21955): 15 mm | Interpretive standard (resistant/susceptible) ([4]; E. faecium strain 21955): S | Zone of clearance ([4]; E. faecium strain 22003): 16 mm | Interpretive standard (resistant/susceptible) ([4]; E. faecium strain 22003): S | Zone of clearance ([4]; E. faecium strain 22870): 10 mm | Interpretive standard (resistant/susceptible) ([4]; E. faecium strain 22870): R | Zone of clearance ([4]; E. faecium strain 23227): 9 mm | Interpretive standard (resistant/susceptible) ([4]; E. faecium strain 23227): R | Zone of clearance ([4]; E. faecium strain 23230): 5 mm | Interpretive standard (resistant/susceptible) ([4]; E. faecium strain 23230): R | Zone of clearance ([4]; E. faecium strain 23668): 10 mm | Interpretive standard (resistant/susceptible) ([4]; E. faecium strain 23668): R | Zone of clearance ([4]; E. faecium strain 24169): 10 mm | Interpretive standard (resistant/susceptible) ([4]; E. faecium strain 24169): R | Zone of clearance ([4]; E. faecium strain RC63): 8 mm | Interpretive standard (resistant/susceptible) ([4]; E. faecium strain RC63): R | FIC compound ([5]; E. faecium strain 21024): 0.128 | Rescue concentration of SP-BIM 13 ([5]; E. faecium strain 21024): 32 µg/mL | Interpretation ([5]; E. faecium strain 21024): Synergy (Synergy: FICI≤0.5) | Σ FIC ([5]; E. faecium strain 21024): <0.14 | MIC of antibiotic only ([5]; E. faecium strain 21024): 63 µg/mL | FIC antibiotic ([5]; E. faecium strain 21024): 0.016 | MIC of antibiotic in combination ([5]; E. faecium strain 21024): 1 µg/mL | FIC compound ([5]; E. faecium strain 22870): 0.004 | Rescue concentration of SP-BIM 13 ([5]; E. faecium strain 22870): 1 µg/mL | Interpretation ([5]; E. faecium strain 22870): Synergy (Synergy: FICI≤0.5) | Σ FIC ([5]; E. faecium strain 22870): <0.07 | MIC of antibiotic only ([5]; E. faecium strain 22870): 32 µg/mL | FIC antibiotic ([5]; E. faecium strain 22870): 0.063 | MIC of antibiotic in combination ([5]; E. faecium strain 22870): 2 µg/mL | FIC compound ([5]; E. faecium strain 23227): 0.032 | Rescue concentration of SP-BIM 13 ([5]; E. faecium strain 23227): 8 µg/mL | Interpretation ([5]; E. faecium strain 23227): Synergy (Synergy: FICI≤0.5) | Σ FIC ([5]; E. faecium strain 23227): <0.06 | MIC of antibiotic only ([5]; E. faecium strain 23227): 32 µg/mL | FIC antibiotic ([5]; E. faecium strain 23227): 0.031 | MIC of antibiotic in combination ([5]; E. faecium strain 23227): 1 µg/mL | FIC compound ([5]; E. faecium strain 23230): 0.064 | Rescue concentration of SP-BIM 13 ([5]; E. faecium strain 23230): 16 µg/mL | Interpretation ([5]; E. faecium strain 23230): Synergy (Synergy: FICI≤0.5) | Σ FIC ([5]; E. faecium strain 23230): <0.13 | MIC of antibiotic only ([5]; E. faecium strain 23230): 32 µg/mL | FIC antibiotic ([5]; E. faecium strain 23230): 0.063 | MIC of antibiotic in combination ([5]; E. faecium strain 23230): 2 µg/mL | FIC compound ([5]; E. faecium strain 23668): 0.064 | Rescue concentration of SP-BIM 13 ([5]; E. faecium strain 23668): 16 µg/mL | Interpretation ([5]; E. faecium strain 23668): Synergy (Synergy: FICI≤0.5) | Σ FIC ([5]; E. faecium strain 23668): <0.10 | MIC of antibiotic only ([5]; E. faecium strain 23668): 32 µg/mL | FIC antibiotic ([5]; E. faecium strain 23668): 0.031 | MIC of antibiotic in combination ([5]; E. faecium strain 23668): 1 µg/mL | FIC compound ([5]; E. faecium strain 24169): 0.128 | Rescue concentration of SP-BIM 13 ([5]; E. faecium strain 24169): 32 µg/mL | Interpretation ([5]; E. faecium strain 24169): Synergy (Synergy: FICI≤0.5) | Σ FIC ([5]; E. faecium strain 24169): <0.14 | MIC of antibiotic only ([5]; E. faecium strain 24169): 63 µg/mL | FIC antibiotic ([5]; E. faecium strain 24169): 0.008 | MIC of antibiotic in combination ([5]; E. faecium strain 24169): 0.5 µg/mL | Rescue concentration of SP-BIM 13 ([5]; E. faecium strain RC63): 63 µg/mL | Interpretation ([5]; E. faecium strain RC63): Synergy (Synergy: FICI≤0.5) | Σ FIC ([5]; E. faecium strain RC63): <0.26 | MIC of antibiotic only ([5]; E. faecium strain RC63): 32 µg/mL | FIC antibiotic ([5]; E. faecium strain RC63): 0.006 | MIC of antibiotic in combination ([5]; E. faecium strain RC63): 0.2 µg/mL | MIC ([5]; Enterococcus faecium, read-out: MIC of Vancomycin without SP-BIM 13): 32 to 63 µg/mL | MIC (Escherichia coli [6]; [7]): 125 µg/mL | MIC in combination: Antibiotic (Escherichia coli [6]; [15]): 125 | FIC of SP-BIM 9 (Escherichia coli [6]; [8]): 1 | FIC of SP-BIM 13 (Escherichia coli [6]; [9]): 1.0 | Interpretation (Escherichia coli [6]; antibiotic + SP-BIM 9): Indifferent (Indifferent: FICI>1.0-4.0) | Σ FIC (Escherichia coli [6]; antibiotic + SP-BIM 9): <2.0 | Interpretation (Escherichia coli [6]; antibiotic + SP-BIM 13): Indifferent (Indifferent: FICI>1.0-4.0) | Σ FIC (Escherichia coli [6]; antibiotic + SP-BIM 13): <2.0 | MIC antibiotic only (Escherichia coli [6]; antibiotic alone): 125 | MIC in combination, Antibiotic (Escherichia coli [6]; [11]): 125 µg/mL | FIC of antibiotic (Escherichia coli [6]; combination with SP-BIM 13): 1.0 | FIC of antibiotic (Escherichia coli [6]; in combination with SP-BIM 9): 1 | MIC (Candida albicans; [7]): 16 µg/mL | MIC in combination: Antibiotic (Candida albicans; [15]): 8 | FIC of SP-BIM 13 (Candida albicans; [9]): 0.1 | Interpretation (Candida albicans; antibiotic + SP-BIM 13): Additive (Additive: FICI>0.5-1.0) | Σ FIC (Candida albicans; antibiotic + SP-BIM 13): <0.6 | FIC of antibiotic (Candida albicans; combination with SP-BIM 13): 0.5
